In patent US7199157B2, “Use of treprostinil to improve kidney functions” (United Therapeutics Corporation, priority 2003, dated 2007):

Assays:
[1] = test system: patients suffering from poor kidney function; assay: Administration of Treprostinil to humans suffering from kidney malfunction/failure (chronic continuous subcutaneous infusion)
Experimental: The target dose is determined by titration in patients for a clinical effect. The medication is delivered by a small pump that is connected to a catheter placed under the skin. In this manner, increasing dosages of Treprostinil are administered to patients by chronic continuous subcutaneous infusion. […] An example of one target dose is 10 ng/kg/min.

[2] = test system: human pulmonary arterial smooth muscle cells; conditions: cited from earlier work
[3] = test system: human alveolar macrophages; conditions: cited from earlier work
[4] = test system: patients with class III or class IV heart failure; conditions: cited from earlier work

## CCCCC[C@H](O)CC[C@@H]1[C@H]2Cc3cccc(OCC(=O)[O-])c3C[C@H]2C[C@H]1O.[Na+] [Treprostinil]
[1]; at least two patients with poor kidney function, also on dialysis, treatment over the course of several weeks
  urine production: improved urine production
[1]; at peak dose, continuous subcutaneous infusion
  common side effects: headache and nausea
[2]
  proliferation of human pulmonary arterial smooth muscle cells: inhibits proliferation
[3]
  inflammatory cytokine (tumor necrosis factor-α, interleukin-1β, interleukin-6, granulocyte macrophage colony-stimulating factor) secretion and gene expression: inhibits
[4]
  vasodilator effects: vasodilator effects
